Laboratory results reported in patent US20040102524A1, “Method of treatment” (priority 2001, published 2004).

Tested on: uric acid levels
Assay: Clinical data for reduction of uric acid levels in human volunteers
Format: in vivo
Design: Mean uric acid 24 hr. after dose: unit not given here
Conditions: for mean uric acid blood level reduced by: 24 hours after administration vs baseline; for % at 24 hrs. (mean blood level of uric acid at 24 hours after administration as a percentage of the baseline level) / Mean uric acid 24 hr. after dose: oral tablets; for Mean uric acid 24 hr. after dose: plasma
Method: Test subjects were orally administered tablets containing N-propanesulfonyl-6-[N-(5-bromo-2-(cyclopropylmethoxy)benzyl)-N-ethylamino]pyridazine-3-carboxamide, or a matching placebo was administered orally as tablets, with 200 mL of distilled water. The subjects were directed to remain semi-recumbent for six hours after dosing. A 4.9 mL sample of blood was taken into a tube containing lithium heparin anticoagulant, and plasma was separated by centrifugation for the clinical chemistry analysis at the pretrial medical examinations, pre-dose, 6 hours and 24 hours after dosing on each trial day. Concentrations of the uric acid were determined by standard analytical techniques.
The listed percentages represent mean blood level of uric acid at 24 hours after administration of the test substance (active compound or placebo) as a percentage of the baseline uric acid level measured prior to administration. […] In particular at a dose of 400 mg the mean uric acid blood level is reduced by 29%. Doses of 800 mg and 1600 mg likewise reduce blood levels of uric acid by 33% and 42% respectively.

CCCS(=O)(=O)NC(=O)c1ccc(N(CC)Cc2cc(Br)ccc2OCC2CC2)nn1 [N-propanesulfonyl-6-[N-(5-bromo-2-(cyclopropylmethoxy)benzyl)-N-ethylamino]pyridazine-3-carboxamide]
mean uric acid blood level reduced by (dose of 400 mg): 29%
mean uric acid blood level reduced by (dose of 800 mg): 33%
mean uric acid blood level reduced by (dose of 1600 mg): 42%
% at 24 hrs. (mean blood level of uric acid at 24 hours after administration as a percentage of the baseline level) (dose 1 mg): 98.8%
Mean uric acid 24 hr. after dose (dose 1 mg, n=4): 280
% at 24 hrs. (mean blood level of uric acid at 24 hours after administration as a percentage of the baseline level) (dose 5 mg): 90.1%
Mean uric acid 24 hr. after dose (dose 5 mg, n=4): 245
% at 24 hrs. (mean blood level of uric acid at 24 hours after administration as a percentage of the baseline level) (dose 25 mg): 93.2%
Mean uric acid 24 hr. after dose (dose 25 mg, n=4): 237
% at 24 hrs. (mean blood level of uric acid at 24 hours after administration as a percentage of the baseline level) (dose 100 mg): 90.0%
Mean uric acid 24 hr. after dose (dose 100 mg, n=4): 286
% at 24 hrs. (mean blood level of uric acid at 24 hours after administration as a percentage of the baseline level) (dose 200 mg): 85.2%
Mean uric acid 24 hr. after dose (dose 200 mg, n=4): 268
% at 24 hrs. (mean blood level of uric acid at 24 hours after administration as a percentage of the baseline level) (dose 400 mg): 70.6%
Mean uric acid 24 hr. after dose (dose 400 mg, n=4): 242
% at 24 hrs. (mean blood level of uric acid at 24 hours after administration as a percentage of the baseline level) (dose 800 mg): 66.7%
Mean uric acid 24 hr. after dose (dose 800 mg, n=4): 237
% at 24 hrs. (mean blood level of uric acid at 24 hours after administration as a percentage of the baseline level) (dose 1600 mg): 57.6%
Mean uric acid 24 hr. after dose (dose 1600 mg, n=6): 168
